In BindingDB's records for doi:10.1007/s10822-022-00478-x (Roche Innovation Center Basel, F. Hoffmann-La Roche Ltd., 2022):

molecular target: cAMP and cAMP-inhibited cGMP 3',5'-cyclic phosphodiesterase 10A (Homo sapiens, UniProt Q9Y233); experiment: PDE10A assay
Outline: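 Human PDE10A (2 ng/well) preincubated 15 min RT with compound in HEPES pH 7.5, 10 mM MgCl2, BSA, then reacted 15 min with 50 nM [3H]cGMP/cGMP substrate. Stopped with Y-Si SPA beads; bound radioactivity counted, IC50 from four-parameter logistic, pIC50 = −log10(IC50).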

SMILES	IC50 [nM]
O=C(Nc1cc(-c2ccc3ccccc3n2)nn1CCO)c1nc(C2CC2)ccc1Nc1cncnc1 [US8470820, 25]	0.09
CC(C)n1nc(NC(=O)c2nc(C3CC3)ccc2Nc2cncnc2)cc1C(=O)N(C)C [Roche-Dataset for PDE10A, Compound 1013]	793
CN(C)c1nc2cc(NC(=O)c3c(C(=O)N4CCC4)cnn3C)ccc2s1 [Roche-Dataset for PDE10A, Compound 461]	3.12
Cc1nc2ccccc2nc1OCc1csc(N2CCCC2)n1 [Roche-Dataset for PDE10A, Compound 1025]	65
Cn1cc(-c2ccccc2)nc1CCc1cnc2ccccc2n1 [US9834564, Compound 20]	21
Cn1ncc(C(=O)N2CCC2)c1C(=O)Nc1ccn2nc(-c3ccccc3OCF)nc2c1 [Roche-Dataset for PDE10A, Compound 71]	1.73
Cn1ncc(C(=O)N2CCC2)c1C(=O)Nc1ccc2sc(N3CCOCC3)nc2c1 [Roche-Dataset for PDE10A, Compound 397]	1.86
CN(CCF)C(=O)c1cnn(C)c1C(=O)N[C@@H]1CCn2cc(-c3ccccc3)nc2C1 [Roche-Dataset for PDE10A, Compound 190]	205
O=C(Nc1cc(-c2ccccc2)no1)c1ccc2cc(-c3ccccc3)nn2c1 [Roche-Dataset for PDE10A, Compound 752]	4500
Cn1ncc(C(=O)N(CCO)CCO)c1C(=O)Nc1ccn2nc(-c3ccccc3)nc2c1 [Roche-Dataset for PDE10A, Compound 125]	3.98
Cc1cnccc1NC(=O)c1ccc2cc(-c3ccccc3)nn2c1 [Roche-Dataset for PDE10A, Compound 448]	563
Cc1cnc(C)n2nc(CCc3nc(N4CCNC(=O)C4)nn3C)nc12 [Roche-Dataset for PDE10A, Compound 483]	848
CCc1cc(C(F)(F)F)c2nc(CCc3nc(N4CCCC4)nn3C)nn2c1C [Roche-Dataset for PDE10A, Compound 171]	3.37
Cc1cc(C(=O)Nc2cc3[nH]c(-c4ccccc4)nc3cc2C(F)(F)F)n(C)n1 [Roche-Dataset for PDE10A, Compound 731]	10000
COc1ccc(-c2nc3cc(NC(=O)c4c(C(=O)N5CCC5)cnn4C)ccn3n2)cc1 [Roche-Dataset for PDE10A, Compound 820]	7.9
Cn1ncc(C(=O)N2CCC2)c1C(=O)Nc1ccc2nc(N3CCOCC3)nn2c1 [Roche-Dataset for PDE10A, Compound 412]	16
CN(C(=O)c1cnn(C)c1C(=O)Nc1ccn2nc(N3CCOCC3)nc2c1)C1CC1 [Roche-Dataset for PDE10A, Compound 207]	1.1
Cc1nc2ccccc2nc1CCc1ncc(-c2ccccc2)[nH]1 [Roche-Dataset for PDE10A, Compound 254]	9.25
CN(C)c1nc(/C=C/c2nc(Br)cs2)nc2ccc(Cl)cc12 [Roche-Dataset for PDE10A, Compound 612]	1470
Cc1ncc(Nc2cncnc2)c(C(=O)N[C@@H]2CCN(c3ccc(Cl)cn3)C2)n1 [Roche-Dataset for PDE10A, Compound 336]	242
O=C(NC1CCCC1)c1nc(C2CC2)cnc1Nc1cncnc1 [Roche-Dataset for PDE10A, Compound 1041]	965
COc1ncc(C2CC2)nc1C(=O)Nc1ccn2nc(-c3ccccc3)nc2c1 [Roche-Dataset for PDE10A, Compound 514]	17

SMILES	IC50 [nM]
Cc1ncc(C)n2nc(/C=C/c3nc(Br)cn3-c3ccccc3)nc12 [Roche-Dataset for PDE10A, Compound 648]	202
O=C(NC1CC1)c1ccsc1NC(=O)c1nc(C2CC2)ccc1Nc1cncnc1 [US8703768, 89]	0.48
CCOC(=O)c1cnn(C)c1C(=O)Nc1ccn2nc(Br)nc2c1 [Roche-Dataset for PDE10A, Compound 936]	3500
Cn1ncc(C(=O)N2CCC2)c1C(=O)Nc1ccn(Cc2ccccc2)n1 [Roche-Dataset for PDE10A, Compound 950]	116
O=C(N[C@@H]1CCN(c2ccc(Cl)nn2)C1)c1nc(C2CC2)ccc1Nc1cncnc1 [Roche-Dataset for PDE10A, Compound 923]	12
Cn1ncc(C(=O)N2CCOCC2)c1C(=O)Nc1cn(-c2ccc3ccccc3n2)cn1 [Roche-Dataset for PDE10A, Compound 222]	1.76
O=C(Nc1ccc(O)c2c1CCCC2=O)c1nc(C2CC2)cnc1Nc1cncnc1 [Roche-Dataset for PDE10A, Compound 949]	10
CCN(C)C(=O)c1cnn(C)c1C(=O)Nc1ccn2cc(-c3cccc(O)c3)nc2n1 [Roche-Dataset for PDE10A, Compound 73]	3.47
CC(=O)N1CC(C)(C)c2ccc(NC(=O)c3nc(C4CC4)cnc3Nc3cncnc3)cc21 [Roche-Dataset for PDE10A, Compound 952]	7.64
O=C(Nc1snnc1-c1ccccc1)c1nc(C2CC2)ccc1Nc1cncnc1 [Roche-Dataset for PDE10A, Compound 818]	7.58
O=C(Nc1ccn2nc(-c3ccccc3)nc2c1)c1ccno1 [Roche-Dataset for PDE10A, Compound 606]	2350
CNC(=O)c1cc(OCCO)ccc1NC(=O)c1nc(C2CC2)cnc1Nc1cncnc1 [US8703768, 216]	0.77
Cc1ncc(C)n2nc(CCc3nc(N4CC[C@@H](C)[C@H]4C)nn3C)nc12 [Roche-Dataset for PDE10A, Compound 392]	43
O=C(Nc1cc(-c2ccccn2)nn1C1CCCCC1)c1nc(C2CC2)ccc1Nc1cncnc1	1.32
Cn1cc(-c2ccccc2)nc1COc1cc(N2CCOCC2)nc(-c2cccnc2)n1 [Roche-Dataset for PDE10A, Compound 312]	269
O=C(NCC1CC1)c1cccc(NC(=O)c2nc(C3CC3)cnc2Nc2cncnc2)n1 [Roche-Dataset for PDE10A, Compound 880]	9.65
COc1ccccc1-c1cn2c(n1)C[C@H](NC(=O)c1c(C(=O)N(C)CCF)cnn1C)CC2 [Roche-Dataset for PDE10A, Compound 351]	173
Cc1nc(C)n2nc(/C=C/c3nc(N4CCCC4)nn3C)nc2c1C [Roche-Dataset for PDE10A, Compound 293]	9.16
Cn1nc(-c2ccccn2)cc1NC(=O)c1ccn(CC(F)(F)F)n1 [Roche-Dataset for PDE10A, Compound 662]	10000
CCOc1cc(NC(=O)c2nc(C3CC3)cnc2Nc2cncnc2)ccn1 [Roche-Dataset for PDE10A, Compound 765]	53
O=C(NCC1CCC1)c1nc(C2CC2)cnc1Nc1cncnc1 [Roche-Dataset for PDE10A, Compound 1038]	1590
CNC(=O)c1cn2cc(-c3ccccc3)nc2cc1NC(=O)c1nc(C2CC2)ccc1Nc1cncnc1 [Roche-Dataset for PDE10A, Compound 184]	0.22

SMILES	IC50 [nM]
CS(=O)(=O)N1CCC(NC(=O)c2nc(C3CC3)cnc2Nc2cncnc2)CC1 [Roche-Dataset for PDE10A, Compound 1072]	2860
CN(C)c1nc2cc(NC(=O)c3c(C(=O)N4CCC4)cnn3C)ccn2n1 [Roche-Dataset for PDE10A, Compound 520]	2.77
COCCn1nccc1NC(=O)c1nc(C2CC2)ccc1Nc1cncnc1 [Roche-Dataset for PDE10A, Compound 868]	43
CN(c1nc2cc(NC(=O)c3c(C(=O)N4CCC4)cnn3C)ccn2n1)C1CC1 [Roche-Dataset for PDE10A, Compound 450]	0.87
O=C(NCc1ccc(C(F)(F)F)cc1)c1nc(C2CC2)cnc1Nc1cncnc1 [Roche-Dataset for PDE10A, Compound 668]	100
CSc1ncc(Nc2cncnc2)c(C(=O)Nc2cc(-c3ccccn3)nn2C)n1 [Roche-Dataset for PDE10A, Compound 519]	1360
Cn1ncc(C(=O)N2CCC2)c1C(=O)Nc1ccn(Cc2ccc(Cl)cc2)n1 [Roche-Dataset for PDE10A, Compound 970]	120
O=C(Nc1cccc(F)c1C(=O)N1CCC1)c1nc(C2CC2)cnc1Nc1cncnc1 [US8703768, 309]	1.67
Cc1ncc(C)n2nc(CCc3nc(C(=O)N(C)C)cn3C)nc12 [Roche-Dataset for PDE10A, Compound 609]	1590
O=C(Nc1cccc(N2CCOCC2)c1)c1nc(C2CC2)cnc1Nc1cncnc1 [Roche-Dataset for PDE10A, Compound 812]	13
Cn1ncc(C(=O)N2CCC2)c1C(=O)Nc1cc(C2CCCCC2)n(C2CCCC2)n1 [Roche-Dataset for PDE10A, Compound 1101]	783
Cc1cnc(C)n2nc(CCc3nc(NCCCCl)nn3C)nc12 [Roche-Dataset for PDE10A, Compound 725]	433
COc1ccc(Cn2nc(CCc3nc4c(Cl)cc(Cl)c(C)n4n3)nc2N2CCCC2)cc1 [Roche-Dataset for PDE10A, Compound 37]	2.58
Cn1cc(-c2ccccc2)nc1/C=C/c1nc(N2CCOCC2)c2cc(Cl)ccc2n1 [Roche-Dataset for PDE10A, Compound 64]	1.31
Cn1cc(S(C)(=O)=O)c(C(=O)Nc2ccc3cc(-c4ccccc4)nn3c2)n1 [Roche-Dataset for PDE10A, Compound 416]	88
O=C1c2ccccc2C(=O)N1CCc1csc(-c2ccccc2)n1 [Roche-Dataset for PDE10A, Compound 177]	2520
O=C(Nc1ccn2nc(-c3ccccc3)nc2c1)c1ccc(Cl)nn1 [Roche-Dataset for PDE10A, Compound 897]	10000
COc1cc(NC(=O)c2ccc3cc(-c4ccccc4)nn3c2)ccn1 [Roche-Dataset for PDE10A, Compound 365]	144
Cn1ncc(C(=O)N2CCC2)c1C(=O)Nc1ccn(-c2cc(Cl)cc(Cl)c2)n1 [Roche-Dataset for PDE10A, Compound 1051]	43
Cc1ncc(C)n2nc(/C=C/c3nc(C)n(-c4ccccc4)n3)nc12 [Roche-Dataset for PDE10A, Compound 720]	177
